Test results published in US20110038829A1, “METHODS AND MATERIALS FOR TREATING DIARRHEA” (MAYO FOUNDATION FOR MEDICAL EDUCATION AND RESEARCH, priority 2009, published 2011).

Tests used:
healthy volunteers [1] = assay: Scintigraphic gastrointestinal and colonic transit, CDC study; type: in vivo, human; details: for AC t1/2 (ascending colon emptying) / CF 6 (colonic filling at 6 hours) / GC 4 (colonic geometric center) / GC 24 (colonic geometric center at 24 hours) / GC 48 (colonic geometric center at 48 hours) / GE t1/2: N = 20, mean ± SEM
Experimental: A double-blind, placebo-controlled, parallel-group, randomized study was conducted to evaluate the effects of oral sodium chenodeoxycholate (CDC) or placebo, once daily for 4 days, in healthy volunteers. In a second trial, oral colesevelam hydrochloride or placebo were administered for 12-14 days in patients with diarrhea-predominant irritable bowel syndrome (IBS-D). The study was approved by a review board and all participants signed informed consent. In both studies, allocation was concealed from the study investigators. In the first trial, participants were randomized to placebo, CDC 500 mg, or 1000 mg (20 per group). Sodium CDC (unconjugated) was purchased from Calbiochem (EMD Biosciences Inc., San Diego, Calif. 92121), and the Mayo pharmacy prepared identical placebo and CDC capsules, all of which were coated with the pH sensitive polymer, methacrylate (Eudragit® S-100, Rohm Pharmaceuticals, Darmstadt D-64293, Germany). The latter dissolves at the neutral pH found in the distal ileum and was used to ensure ileocolonic delivery of the CDC or placebo. All participants were screened for idiopathic bile acid malabsorption (BAM) with fasting serum 7alpha-hydroxy-4-cholesten-3-one (7αC4). 60 patients (mean age 38.7 years, 43 female) were enrolled to the study. Three groups (n=20 each) were randomized to one oral capsule daily containing placebo, 500 mg, or 1000 mg CDC, each for a period of 4 days. Gastrointestinal (GI) and colonic transit was conducted by a scintigraphic method (Burton et al., J. Nucl. Med., 38:1807-1810 (1997) and Cremonini et al., Aliment Pharmacol. Ther., 16:1781-1790 (2002)) during the last 48 hours of drug ingestion. An adaptation of an established scintigraphic method was used to measure gastrointestinal and colonic transit (Burton et al., J. Nucl. Med., 38:1807-1810 (1997) and Cremonini et al., Aliment Pharmacol. Ther., 16:1781-1790 (2002)). Patients with IBS-D had baseline measurement of colonic transit since this is known to be a significant covariate in treatment responses. The primary endpoints were the colonic geometric center (GC) at 24 hours (GC 24) and ascending colon (AC) emptying t1/2. […] The capsule was ingested following an overnight fast. After the capsule emptied from the stomach, a 99 mTc-sulfur colloid radiolabeled meal was ingested. It consisted of two scrambled eggs, one slice of whole wheat bread, and one glass of whole milk. This meal allowed measurement of gastric and small bowel transit. Subjects ingested standardized meals for lunch and dinner at 4 and 8 hours after the radiolabeled meal, respectively. Abdominal scans were obtained every hour for the first 6 hours (the first 4 hours for the assessment of gastric emptying) and at 8, 24, and 48 hours after ingestion of the ^111In capsule. The counts in the stomach and each of four colonic regions, ascending, transverse, descending, and combined sigmoid and rectum, were quantitated with a variable region of interest program. Counts were corrected for isotope decay, tissue attenuation, and downscatter of ^111In counts in the 99 mTc window. Gastric emptying t1/2 is a measure of the time for 50% of the radiolabeled meal (identifiable by radiolabeled tracer) to empty from the stomach. Colonic filling at 6 hours, or the proportion of the radiolabeled meal to have reached the colon at 6 hours, is an indirect measurement of small bowel transit time. Overall colonic transit was summarized as the colonic geometric center (GC) at specified times. The GC is the weighted average of counts in the different colonic regions (ascending (AC), transverse (TC), descending (DC), rectosigmoid (RS)) and stool, respectively 1 to 5. At any time, the proportion of counts in each colonic region is multiplied by its weighting factor as follows: (%AC×1+%TC×2+%DC×3+%RS×4+%stool×5)/100=GC Thus, a higher GC reflects a faster colonic transit. Ascending colon emptying was summarized by the t1/2 calculated by linear interpolation of values on the AC emptying curve.

healthy volunteers [2] = assay: Daily stool diaries (bowel function), CDC study; type: in vivo, human; details: for Ease of passage (scale1-7) / Stool consistency by Bristol Stool Form Scale / Stool frequency per day: N = 20, mean ± SEM
Experimental: 60 patients (mean age 38.7 years, 43 female) were enrolled to the study. Three groups (n=20 each) were randomized to one oral capsule daily containing placebo, 500 mg, or 1000 mg CDC, each for a period of 4 days. Gastrointestinal (GI) and colonic transit was conducted by a scintigraphic method (Burton et al., J. Nucl. Med., 38:1807-1810 (1997) and Cremonini et al., Aliment Pharmacol. Ther., 16:1781-1790 (2002)) during the last 48 hours of drug ingestion. All participants completed bowel function diaries that documented the time of each bowel movement, stool consistency (Bristol Stool Form Scale), the ease of passage (ranging from 1=“manual disimpaction” to 7=“incontinence”), and completeness of evacuation (1=“yes” and 0=“no”). In the first study, patients recorded diaries during at least 3 days of the baseline period and the 4 days of treatment. The diaries were recorded for at least 3 days of the baseline period and during the entire treatment period of the second study.

healthy volunteers [3] = test system: healthy volunteers; parameters: species or system human; details: in vivo
Experimental: An independent statistician, who otherwise was not involved in the study, generated the randomization codes, and the allocation was concealed. All clinical and laboratory study personnel were blinded throughout the study until all data were locked and analyzed. Clinical safety monitoring was conducted by the study investigators throughout the study. 60 patients (mean age 38.7 years, 43 female) were enrolled to the study. Three groups (n=20 each) were randomized to one oral capsule daily containing placebo, 500 mg, or 1000 mg CDC, each for a period of 4 days. Gastrointestinal (GI) and colonic transit was conducted by a scintigraphic method (Burton et al., J. Nucl. Med., 38:1807-1810 (1997) and Cremonini et al., Aliment Pharmacol. Ther., 16:1781-1790 (2002)) during the last 48 hours of drug ingestion.

[4] = CDC 500 mg once daily for 4 days
[5] = CDC 1000 mg once daily for 4 days

SMILES: C[C@H](CCC(=O)[O-])[C@H]1CC[C@H]2[C@@H]3[C@H](O)C[C@@H]4C[C@H](O)CC[C@]4(C)[C@H]3CC[C@]12C.[Na+] [CDC, sodium chenodeoxycholate]
- AC t1/2 (ascending colon emptying) (healthy volunteers [1]; [4]): 12.1 ± 2.1 h
- CF 6 (colonic filling at 6 hours) (healthy volunteers [1]; [4]): 49.6 ± 7.0%
- GC 4 (colonic geometric center) (healthy volunteers [1]; [4]): 0.87 ± 0.18
- GC 24 (colonic geometric center at 24 hours) (healthy volunteers [1]; [4]): 2.80 ± 0.27
- GC 48 (colonic geometric center at 48 hours) (healthy volunteers [1]; [4]): 4.10 ± 0.21
- GE t1/2 (healthy volunteers [1]; [4]): 2.115 ± 0.0883 h
- Treatment effect on colonic filling at 6 hours (in words) (healthy volunteers [1]; CDC 500 mg or 1000 mg vs placebo): not detected
- AC t1/2 (ascending colon emptying) (healthy volunteers [1]; [5]): 10.7 ± 1.9 h
- CF 6 (colonic filling at 6 hours) (healthy volunteers [1]; [5]): 46.0 ± 7.1%
- GC 4 (colonic geometric center) (healthy volunteers [1]; [5]): 1.27 ± 0.33
- GC 24 (colonic geometric center at 24 hours) (healthy volunteers [1]; [5]): 3.76 ± 0.30
- GC 48 (colonic geometric center at 48 hours) (healthy volunteers [1]; [5]): 4.92 ± 0.05
- GE t1/2 (healthy volunteers [1]; [5]): 2.383 ± 0.235 h
- Effect on colonic transit (GC) at 24 and 48 hours (in words) (healthy volunteers [1]; FIG. 3, 1000 mg p<0.0001, 500 mg p<0.01 vs placebo): overall acceleration of colonic transit
- Ease of passage (scale1-7) (healthy volunteers [2]; [4]): 4.1 ± 0.06
- Stool consistency by Bristol Stool Form Scale (healthy volunteers [2]; [4]): 4.29 ± 0.19
- Stool frequency per day (healthy volunteers [2]; [4]): 1.50 ± 0.18 per day
- Effect on sense of complete evacuation (in words) (healthy volunteers [2]; CDC 500 mg or 1000 mg vs placebo, p=0.02): significant overall treatment effects
- Ease of passage (scale1-7) (healthy volunteers [2]; [5]): 4.3 ± 0.06
- Stool consistency by Bristol Stool Form Scale (healthy volunteers [2]; [5]): 4.80 ± 0.15
- Stool frequency per day (healthy volunteers [2]; [5]): 2.01 ± 0.15 per day
- Effect on stool form/consistency (in words) (healthy volunteers [2]; FIG. 3, p<0.0001): more liquid consistency stool
- Effect on stool frequency (in words) (healthy volunteers [2]; FIG. 3, p<0.001): increase in stool frequency
- Adverse event: headache, rate (healthy volunteers [3]): 20-25%
- Adverse events: gas, bloating and nausea, participants (healthy volunteers [3]): 5-20%
